Measurements published in ChEMBL document CHEMBL3286383, “4-Benzofuranyloxynicotinamide derivatives are novel potent and orally available TGR5 agonists” (Eur J Med Chem, 2014).

Tests used:
[1] = Drug level in ICR mouse bile at 50 mg/kg, po after 3 hrs by LC-MS/MS analysis; assay type: ADME, organism-based; design: dose 50 mg/kg, route oral; conditions: read-out: Drug uptake
[2] = test system: Nucleic Acid; assay: Ratio of drug level in ICR mouse gallbladder at 50 mg/kg, po after 3 hrs to EC50 for mouse TGR5 expressed in HEK293 cells; assay type: organism-based; design: dose 50 mg/kg
[3] = target: T1, G-protein coupled bile acid receptor 1 (Homo sapiens, UniProt Q8TDU6); assay: Agonist activity at human TGR5 expressed in HEK293 cells co-expressing CRE after 5.5 hrs by luciferase reporter gene assay; assay type: functional, cell-based
T1 sequence (Q8TDU6 whole entry): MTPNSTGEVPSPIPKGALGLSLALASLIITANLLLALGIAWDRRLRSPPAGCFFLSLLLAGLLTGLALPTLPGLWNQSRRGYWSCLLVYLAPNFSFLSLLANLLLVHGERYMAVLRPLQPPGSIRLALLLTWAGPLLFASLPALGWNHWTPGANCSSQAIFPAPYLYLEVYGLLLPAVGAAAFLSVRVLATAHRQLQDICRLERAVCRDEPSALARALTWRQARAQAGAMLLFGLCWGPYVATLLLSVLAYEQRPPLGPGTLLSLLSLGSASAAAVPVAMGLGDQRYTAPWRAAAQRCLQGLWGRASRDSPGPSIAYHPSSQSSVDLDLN

[4] = Drug level in ICR mouse blood at 50 mg/kg, po after 3 hrs by LC-MS/MS analysis; assay type: ADME, organism-based; design: dose 50 mg/kg, route oral; conditions: read-out: Drug uptake
[5] = Apparent permeability of the compound from basolateral to apical side of human Caco2 cells up to 95 mins by LC-MS/MS analysis; conditions: Caco-2
[6] = target: T2, G-protein coupled bile acid receptor 1 (Mus musculus, UniProt Q80SS6); assay: Agonist activity at mouse TGR5 expressed in HEK293 cells co-expressing CRE after 5.5 hrs by luciferase reporter gene assay; assay type: functional, cell-based
T2 sequence (Q80SS6 whole entry): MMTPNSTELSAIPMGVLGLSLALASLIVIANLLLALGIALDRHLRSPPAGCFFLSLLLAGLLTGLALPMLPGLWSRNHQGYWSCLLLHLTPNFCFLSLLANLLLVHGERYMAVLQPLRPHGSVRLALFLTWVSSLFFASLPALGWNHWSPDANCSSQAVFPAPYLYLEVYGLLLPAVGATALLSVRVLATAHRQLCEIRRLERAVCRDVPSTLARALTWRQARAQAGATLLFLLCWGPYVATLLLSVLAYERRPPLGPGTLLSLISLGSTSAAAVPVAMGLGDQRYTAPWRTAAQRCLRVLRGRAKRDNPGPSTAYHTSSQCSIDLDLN

[7] = Drug level in ICR mouse gallbladder at 50 mg/kg, po after 3 hrs by LC-MS/MS analysis; assay type: ADME, organism-based, Gall bladder; design: dose 50 mg/kg, route oral; conditions: read-out: Drug uptake
[8] = test system: Mus musculus; assay: Gallbladder toxicity in ICR mouse assessed as increase of gallbladder volume at 50 mg/kg, po after 3 hrs; assay type: organism-based; design: dose 50 mg/kg, route oral; conditions: in vivo
[9] = Efflux ratio of permeability from apical to basolateral side over basolateral to apical side of human Caco2 cells up to 95 mins by LC-MS/MS analysis; conditions: Caco-2
[10] = test system: Mus musculus; assay: Antidiabetic activity in oral glucose loaded ICR mouse assessed as reduction of AUC (0 to 120 mins) of blood glucose level at 50 mg/kg, po by oral glucose tolerance test; assay type: functional; design: scale not given: the % may be the effect or the level left
[11] = Apparent permeability of the compound from apical to basolateral side of human Caco2 cells up to 95 mins by LC-MS/MS analysis; conditions: Caco-2
[12] = test system: Nucleic Acid; assay: Ratio of drug level in ICR mouse bile at 50 mg/kg, po after 3 hrs to EC50 for mouse TGR5 expressed in HEK293 cells; assay type: organism-based; design: dose 50 mg/kg
[13] = Ratio of plasma concentration in ICR mouse plasma at 50 mg/kg, po after 3 hrs to EC50 for mouse TGR5 expressed in HEK293 cells; assay type: ADME, organism-based; design: dose 50 mg/kg, route oral; conditions: in vivo
[14] = target: T3, G-protein coupled bile acid receptor 1 (Homo sapiens) (UniProt Q8TDU6); assay: Agonist activity at human TGR5 expressed in HEK293 cells co-expressing CRE at 1 uM after 5.5 hrs by luciferase reporter gene assay; assay type: functional, cell-based
T3 sequence (whole entry): T1 sequence (Q8TDU6 whole entry)

[15] = target: T1, G-protein coupled bile acid receptor 1; assay: Agonist activity at human TGR5

Structure (SMILES)	EC50 [3] [nM]	EC50 [6] [nM]	other results
Cc1coc2cc(Cl)c(Oc3ccncc3C(=O)N3CCN(C4CC4)c4ccccc43)cc12	0.28	0.92	concentration at 3 h [1]: 438 ng/mL; Ratio [2]: 891; concentration at 3 h [4]: 65 ng/mL; Papp B→A at 95 min [5]: 1.5 ×10⁻⁶ cm/s; concentration at 3 h [7]: 410 ng/mL; Activity [8]: 97%; efflux ratio at 95 min [9]: 0.71; Activity [10]: 33%; Papp A→B at 95 min [11]: 2.1 ×10⁻⁶ cm/s; Ratio [12]: 1030; Ratio [13]: 153
CCOC(=O)CCc1oc2ccc(Cl)c(Oc3ccncc3C(=O)N3CCN(C4CC4)c4ccccc43)c2c1C	18	72	–
CCOC(=O)CNC(=O)c1oc2cc(Cl)c(Oc3ccncc3C(=O)N3CCN(C4CC4)c4ccccc43)cc2c1C	78	–	–
O=C(c1cnccc1Oc1cccc2ccccc12)N1CCN(C2CC2)c2ccccc21	17	66	–
Cc1noc2cc(Oc3ccncc3C(=O)N3CCN(C4CC4)c4ccccc43)ccc12	240	–	–
CCOC(=O)Cc1coc2cc(Cl)c(Oc3ccncc3C(=O)N3CCN(C4CC4)c4ccccc43)cc12	5.2	38	–
CCOC(=O)/C=C/c1oc2ccc(Cl)c(Oc3ccncc3C(=O)N3CCN(C4CC4)c4ccccc43)c2c1C	8.9	16	–
O=C(c1cnccc1Oc1cc2ccoc2cc1Cl)N1CCN(C2CC2)c2ccccc21	1.4	10	–
CCOC(=O)c1coc2cc(Cl)c(Oc3ccncc3C(=O)N3CCN(C4CC4)c4ccccc43)cc12	1.7	39	–
O=C(c1cnccc1Oc1ccc2[nH]ccc2c1)N1CCN(C2CC2)c2ccccc21	1220	–	–
Cc1noc2ccc(Oc3ccncc3C(=O)N3CCN(C4CC4)c4ccccc43)cc12	1.5	5.5	–
O=C(O)c1coc2cc(Cl)c(Oc3ccncc3C(=O)N3CCN(C4CC4)c4ccccc43)cc12	–	–	Activity [14]: 38%
CCOC(=O)CNC(=O)CCc1oc2ccc(Cl)c(Oc3ccncc3C(=O)N3CCN(C4CC4)c4ccccc43)c2c1C	30	85	–
O=C(O)Cc1coc2cc(Cl)c(Oc3ccncc3C(=O)N3CCN(C4CC4)c4ccccc43)cc12	1360	–	–
O=C(c1cnccc1Oc1ccc2cc[nH]c2c1)N1CCN(C2CC2)c2ccccc21	162	–	–
CC(=O)c1cccc(Oc2ccncc2C(=O)N2CCN(C3CC3)c3ccccc32)c1	–	–	EC50 ([15]; read-out: EC50): 5.5 nM
O=C(c1cnccc1Oc1ccc2ccccc2c1)N1CCN(C2CC2)c2ccccc21	41	–	–
O=C(c1cnccc1Oc1ccc2cccnc2c1)N1CCN(C2CC2)c2ccccc21	59	–	–
O=C(c1cnccc1Oc1cccc2[nH]ccc12)N1CCN(C2CC2)c2ccccc21	148	–	–
CCOC(=O)CNC(=O)c1coc2cc(Cl)c(Oc3ccncc3C(=O)N3CCN(C4CC4)c4ccccc43)cc12	1400	–	–

Structure (SMILES)	EC50 [3] [nM]	EC50 [6] [nM]	other results
O=C(c1cnccc1Oc1ccc(O)cc1)N1CCN(C2CC2)c2ccccc21	–	–	EC50 [15]: Not Active
O=C(c1cnccc1Oc1ccc2ccoc2c1)N1CCN(C2CC2)c2ccccc21	25	43	–
COC(=O)CCc1coc2cc(Cl)c(Oc3ccncc3C(=O)N3CCN(C4CC4)c4ccccc43)cc12	24	82	–
O=C(c1cnccc1Oc1ccc2ncccc2c1)N1CCN(C2CC2)c2ccccc21	64	–	–
O=C(c1cnccc1Oc1ccc2sccc2c1)N1CCN(C2CC2)c2ccccc21	16	52	–
Cc1c(/C=C/C(=O)O)oc2ccc(Cl)c(Oc3ccncc3C(=O)N3CCN(C4CC4)c4ccccc43)c12	25	18	–
CC(=O)c1cc(C(=O)N2CCN(C3CC3)c3ccccc32)ccc1O	–	–	EC50 ([15]; read-out: EC50): 2.3 nM
O=C(c1cnccc1Oc1ccc2occc2c1)N1CCN(C2CC2)c2ccccc21	10.7	28	–
O=C(O)CCc1coc2cc(Cl)c(Oc3ccncc3C(=O)N3CCN(C4CC4)c4ccccc43)cc12	675	–	–
Cc1c(C(=O)O)oc2cc(Cl)c(Oc3ccncc3C(=O)N3CCN(C4CC4)c4ccccc43)cc12	63	–	–
CCOC(=O)CNC(=O)/C=C/c1oc2ccc(Cl)c(Oc3ccncc3C(=O)N3CCN(C4CC4)c4ccccc43)c2c1C	8.5	6.1	Papp B→A at 95 min [5]: 0.5 ×10⁻⁶ cm/s; efflux ratio at 95 min [9]: 0.48; Papp A→B at 95 min [11]: 1.04 ×10⁻⁶ cm/s
O=C(c1cnccc1Oc1cccc2ncccc12)N1CCN(C2CC2)c2ccccc21	40	–	–
CCOC(=O)CNC(=O)CCc1coc2cc(Cl)c(Oc3ccncc3C(=O)N3CCN(C4CC4)c4ccccc43)cc12	119	–	–
CCOC(=O)c1oc2cc(Cl)c(Oc3ccncc3C(=O)N3CCN(C4CC4)c4ccccc43)cc2c1C	38	–	–
Cc1c(Br)oc2cc(Cl)c(Oc3ccncc3C(=O)N3CCN(C4CC4)c4ccccc43)cc12	7.7	66	–
O=C(c1cnccc1Oc1ccc2ncsc2c1)N1CCN(C2CC2)c2ccccc21	15	60	–
O=C(c1cnccc1Oc1cccc2cccnc12)N1CCN(C2CC2)c2ccccc21	178	–	–
Cc1coc2ccc(Oc3ccncc3C(=O)N3CCN(C4CC4)c4ccccc43)cc12	0.45	2.4	–
CCOC(=O)CNC(=O)Cc1coc2cc(Cl)c(Oc3ccncc3C(=O)N3CCN(C4CC4)c4ccccc43)cc12	520	–	–
Cc1c(CCC(=O)O)oc2ccc(Cl)c(Oc3ccncc3C(=O)N3CCN(C4CC4)c4ccccc43)c12	35	101	–
